Earlier results, collected in publication PMC2074382 (British Journal of Cancer, 1996).

Legend:
[1] = clinical; cited from earlier work
[2] = parameters: method as in PMID 5081595, PMID 8137244; conditions: in vitro and in vivo pharmacology; cited from earlier work
[3] = parameters: method as in Rowinsky et al., 1992; Verweij et al., 1993; conditions: daily x 5 schedule; ref Rowinsky et al., 1992; Verweij et al., 1993; cited from earlier work

Row | SMILES | induced toxicity [1] | potency relative to GI147211 (fold less potent) [2] [fold] | dose-limiting toxicity [3]
1 | CCc1c2c(nc3ccc(OC(=O)N4CCC(N5CCCCC5)CC4)cc13)-c1cc3c(c(=O)n1C2)COC(=O)[C@]3(O)CC [Irinotecan] | neutropenia in addition to diarrhoea | – | –
2 | CC[C@@]1(O)C(=O)OCc2c1cc1n(c2=O)Cc2cc3c(CN(C)C)c(O)ccc3nc2-1 [topotecan] | – | 2.2 | myelosuppression
